The source of these data is US20180148418A1, “AMIDO-SUBSTITUTED CYCLOHEXANE DERIVATIVES” (Bayer Pharma Aktiengesellschaft, priority 2015, published 2018).

A value given as a limit tells only on which side of the number the result lay.

Assay [1] has as its system HEK293 cells cotransfected with the FOP control vector. As to the kind of experiment: HEK293 FOP assay (control reporter with non-functional TCF elements). The class given is cell-based. Particulars: Homo sapiens, 16 hours. Summed up: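 Compound series from 50 μM down to 15 nM, prediluted in DMSO then 50-fold into CAFTY buffer (pH 7.4, 2 mM Ca2+, 0.01% BSA), tested alongside TOP cells on a Geneticin-selected HEK293 FOP line whose TCF elements are replaced by a random sequence; recombinant human Wnt-3a applied at 2500-5 ng/ml.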

Assay [2] concerns wildtype Wnt signaling cascade. As to the kind of experiment: HEK293 TOP assay (Super TopFlash luciferase reporter, Wnt-3a stimulated). The assay is classed as cell-based. Particulars: Homo sapiens, HEK293, 16 h, HEK293 TOP reporter cells, Wnt3a at EC50, 16 hours. Summed up: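 Compound series (50 μM down to 15 nM, 3.16-fold) diluted from DMSO 50-fold into CAFTY buffer, pH 7.4, 2 mM Ca^2+, 0.01% BSA, applied to Wnt-3a-stimulated HEK293 TopFlash and FOP reporter lines in parallel. Cells seeded 10000/well 24 h before; luciferase signal measured.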
Background: In a reporter assay the amount or activity of a reporter protein is the signal.

Another assay deals with T1, TNKS2 (Homo sapiens, UniProt Q9H2K2).
T1 construct: purchased BPS Bioscience, San Diego, USA 80572 (TNKS2 Histone Ribosylation Assay Kit)
T1 sequence (Q9H2K2 1-1166): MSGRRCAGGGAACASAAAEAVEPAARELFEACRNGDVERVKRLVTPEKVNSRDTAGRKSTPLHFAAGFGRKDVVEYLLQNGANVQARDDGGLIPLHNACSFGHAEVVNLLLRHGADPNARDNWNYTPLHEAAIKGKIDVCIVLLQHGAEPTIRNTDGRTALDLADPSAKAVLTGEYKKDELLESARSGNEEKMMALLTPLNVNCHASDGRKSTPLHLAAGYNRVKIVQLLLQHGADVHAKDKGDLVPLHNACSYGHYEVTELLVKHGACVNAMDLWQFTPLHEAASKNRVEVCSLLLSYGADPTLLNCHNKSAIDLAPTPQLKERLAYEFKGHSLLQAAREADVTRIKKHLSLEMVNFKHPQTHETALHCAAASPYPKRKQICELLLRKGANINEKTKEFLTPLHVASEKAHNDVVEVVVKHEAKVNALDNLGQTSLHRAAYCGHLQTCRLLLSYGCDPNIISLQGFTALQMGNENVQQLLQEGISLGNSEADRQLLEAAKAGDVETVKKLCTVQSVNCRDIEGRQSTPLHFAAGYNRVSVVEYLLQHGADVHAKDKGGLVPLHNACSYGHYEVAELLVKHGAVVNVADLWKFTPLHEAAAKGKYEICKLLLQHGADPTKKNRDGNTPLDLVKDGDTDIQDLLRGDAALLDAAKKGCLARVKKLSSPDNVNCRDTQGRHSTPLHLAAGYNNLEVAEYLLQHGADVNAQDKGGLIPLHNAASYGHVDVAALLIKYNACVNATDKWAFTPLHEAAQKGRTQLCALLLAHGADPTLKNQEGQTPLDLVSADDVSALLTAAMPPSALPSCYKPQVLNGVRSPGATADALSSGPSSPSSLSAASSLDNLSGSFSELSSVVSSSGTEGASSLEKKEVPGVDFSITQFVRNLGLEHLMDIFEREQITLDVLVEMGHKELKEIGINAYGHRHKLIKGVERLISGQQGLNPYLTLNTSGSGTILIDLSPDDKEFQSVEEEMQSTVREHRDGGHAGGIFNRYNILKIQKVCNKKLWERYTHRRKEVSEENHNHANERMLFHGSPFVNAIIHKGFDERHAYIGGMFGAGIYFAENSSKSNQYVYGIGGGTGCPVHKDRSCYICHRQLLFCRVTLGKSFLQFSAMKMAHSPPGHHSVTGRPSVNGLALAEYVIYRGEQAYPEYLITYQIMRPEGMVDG
As to the kind of experiment: TNKS2 Assay B (auto-parsylation, [3H]-NAD+ SPA). The class given is biochemical. Particulars: 6 nM TNKS2, auto-parsylation, over night at room temperature. The procedure:
The potency of selected compounds according to the invention was assessed applying a modified in vitro inhibition assay. Here, the TNKS2 catalyzed NAD^+-dependent ribosylation of the enzyme itself (auto-parsylation) was detected using [^3H]-NAD^+ as substrate and applying the scintillation proximity assay (SPA) method to detect tritium-labeled, parsylated TNKS2. The intensity of the readout signal is proportional to the incorporated [^3H]-NAD^+. Inhibition of TNKS2 leads to a decreased incorporation of [^3H]-NAD^+ and consequently to a lower readout signal intensity. The concentration of a test compound which inhibits the enzyme activity by 50% (corresponds to half of the normed readout signal intensity) is reported as IC50.
Protocol Auto-Parsylation Assay
The assay was conducted in a 96 well MTP format with the identical TNKS2 enzyme sample and NAD^+ sample as in the histone ribosylation assay with the following modifications: TNKS2 enzyme sample was diluted with a modified assay buffer (50 mM MES pH 7.0, 1 mM DTT, 0.01% Triton X-100) to a final concentration of 6 nM TNKS2 and 10×NAD^+ solution was diluted with the modified assay buffer (s. above) to a final 0.445×NAD^+ solution doped with 100 Bq/μl [^3H]-NAD^+[Catalog #NET443H050UC, Perkin Elmer, Waltham, Mass., USA]. Substrate solution (10 μl) was incubated with different test compound concentrations (2.5 μl in 10% DMSO in modified assay buffer) or control (2.5 μl 10% DMSO in modified assay buffer only) and enzyme (10 μl) over night at room temperature. Incorporated tritium was measured after addition of 50 ul SPA beads (1 mg/ml) [Catalog #RPNQ0095 20 mg/ml, Perkin Elmer, Waltham, Mass., USA; diluted 1:10 with Dulbecco's phosphate buffered saline, PBS Catalog #D8537, Sigma-Aldrich, Steinheim, Germany] and detection of the photon emission with a beta count plate reader [Wallac MicroBeta®, Perkin Elmer, Waltham, Mass., USA].

The IC50 is the concentration needed to halve the response being measured. A low value points to higher potency. `O=C(N[C@H]1CC[C@@]2(CCN(c3ccc(F)cc3Cl)C2=O)CC1)c1c[nH]c2cccnc12` [Example 236, N-[(trans)-2-(2-chloro-4-fluorophenyl)-1-oxo-2-azaspiro[4.5]dec-8-yl]-1H-pyrrolo[3,2-b]pyridine-3-carboxamide]: the IC50 in assay [1] is no less than 50000 nM; in assay [2] it was 350 nM; at TNKS2, 19 nM.

For the compound `COCCc1cnc2c(C(=O)N[C@H]3CC[C@@]4(CCN(c5ccc(F)cc5Cl)C4=O)CC3)cnn2c1` [Example 237, N-[(trans)-2-(2-chloro-4-fluorophenyl)-1-oxo-2-azaspiro[4.5]dec-8-yl]-6-(2-methoxyethyl)pyrazolo[1,5-a]pyrimidine-3-carboxamide], the values for the half-maximal inhibitory concentration (IC50) (in assay [1]; in assay [2]; against TNKS2) were no less than 50000 nM, 0.14 nM and 8.9 nM, respectively.

Take `O=C(N[C@H]1CC[C@@]2(CCN(c3ccccc3)C2=O)CC1)c1cnn2cccnc12` [Example 238, N-[(trans)-1-oxo-2-phenyl-2-azaspiro[4.5]dec-8-yl]pyrazolo[1,5-a]pyrimidine-3-carboxamide]: the values for the concentration for half-maximal inhibition (IC50) (in assay [1]; in assay [2]; on TNKS2) were no less than 500 nM, 43 nM and 400 nM, respectively.

As for `Cc1cc(C)n2ncc(C(=O)N[C@H]3CC[C@@]4(CCN(c5ccccc5)C4=O)CC3)c2n1` [Example 239, 5,7-dimethyl-N-[(trans)-1-oxo-2-phenyl-2-azaspiro[4.5]dec-8-yl]pyrazolo[1,5-a]pyrimidine-3-carboxamide], the half-inhibitory concentration (IC50) in assay [1] was no less than 500 nM; in assay [2], 73 nM; at TNKS2 it was 570 nM.

`O=C(N[C@H]1CC[C@@]2(CCN(c3ccccc3)C2=O)CC1)c1cnc2cccnn12` [Example 240, N-[(trans)-1-oxo-2-phenyl-2-azaspiro[4.5]dec-8-yl]imidazo[1,2-b]pyridazine-3-carboxamide]: the values for the IC50 (in assay [1]; in assay [2]; against TNKS2) were no less than 500 nM, 29 nM and 510 nM, respectively.

`COCc1cc(C)nc2c(C(=O)N[C@H]3CC[C@@]4(CCN(c5c(F)cc(F)cc5Cl)C4=O)CC3)cnn12` [Example 241, N-[(trans)-2-(2-chloro-4,6-difluorophenyl)-1-oxo-2-azaspiro[4.5]dec-8-yl]-7-(methoxymethyl)-5-methylpyrazolo[1,5-a]pyrimidine-3-carboxamide]: the values for the IC50 (in assay [1]; in assay [2]; against TNKS2) were 8100 nM, 0.99 nM and 19 nM, respectively.

Consider `COCc1cc(C)n2ncc(C(=O)N[C@H]3CC[C@@]4(CCN(c5c(F)cc(F)cc5Cl)C4=O)CC3)c2n1` [Example 242, N-[(trans)-2-(2-chloro-4,6-difluorophenyl)-1-oxo-2-azaspiro[4.5]dec-8-yl]-5-(methoxymethyl)-7-methylpyrazolo[1,5-a]pyrimidine-3-carboxamide], for which the IC50 in assay [1] is no less than 50000 nM; in assay [2], 7.1 nM; on TNKS2 it was 21 nM.

With `O=C(N[C@H]1CC[C@@]2(CCN(c3c(F)cc(F)cc3Cl)C2=O)CC1)c1cnc2cccnn12` [Example 243, N-[(trans)-2-(2-chloro-4,6-difluorophenyl)-1-oxo-2-azaspiro[4.5]dec-8-yl]imidazo[1,2-b]pyridazine-3-carboxamide], the results for the IC50 (in assay [1]; in assay [2]; on TNKS2) were no less than 50000 nM, 1.5 nM and 11 nM, respectively.

On to `O=C(N[C@H]1CC[C@@]2(CCN(c3c(F)cc(F)cc3Cl)C2=O)CC1)c1cnn2cccnc12` [Example 244, N-[(trans)-2-(2-chloro-4,6-difluorophenyl)-1-oxo-2-azaspiro[4.5]dec-8-yl]pyrazolo[1,5-a]pyrimidine-3-carboxamide], for which the IC50 in assay [1] was no less than 500 nM; in assay [2], 3.7 nM; against TNKS2, 6.4 nM.

Turning to `O=C(N[C@H]1CC[C@@]2(CCN(c3cc(F)cc(F)c3)C2=O)CC1)c1cnn2cccnc12` [Example 245, N-[(trans)-2-(3,5-difluorophenyl)-1-oxo-2-azaspiro[4.5]dec-8-yl]pyrazolo[1,5-a]pyrimidine-3-carboxamide], the values for the IC50 (in assay [1]; in assay [2]; against TNKS2) were no less than 50000 nM, 100 nM and 720 nM, respectively.

Take `O=C(N[C@H]1CC[C@@]2(CCN(c3cnccc3Cl)C2=O)CC1)c1cnn2cccnc12` [Example 246, N-[(trans)-2-(4-chloropyridin-3-yl)-1-oxo-2-azaspiro[4.5]dec-8-yl]pyrazolo[1,5-a]pyrimidine-3-carboxamide]: the figures for the IC50 (in assay [1]; in assay [2]; against TNKS2) were no less than 50000 nM, 0.15 nM and 5.9 nM, respectively.

For the compound `Cn1nc(C(=O)N[C@H]2CC[C@@]3(CCN(c4ccc(F)cc4Cl)C3=O)CC2)c2ccccc21` [Example 247, N-[(trans)-2-(2-chloro-4-fluorophenyl)-1-oxo-2-azaspiro[4.5]dec-8-yl]-1-methyl-1H-indazole-3-carboxamide], the IC50 in assay [1] worked out at 13000 nM; in assay [2], 490 nM; against TNKS2, 6000 nM.

Consider `O=C(N[C@H]1CC[C@@]2(CCN(c3ccc(F)cc3Cl)C2=O)CC1)c1n[nH]c2cccc(I)c12` [Example 248, N-[(trans)-2-(2-chloro-4-fluorophenyl)-1-oxo-2-azaspiro[4.5]dec-8-yl]-4-iodo-1H-indazole-3-carboxamide], for which the IC50 in assay [1] was no less than 50000 nM; in assay [2], 5100 nM; against TNKS2, greater than 10000 nM.

Turning to `Cn1nc(C(=O)N[C@H]2CC[C@H](C(=O)Nc3ccc(F)cc3Cl)CC2)c2ccccc21` [Example 249, N-{trans-4-[(2-chloro-4-fluorophenyl)carbamoyl]cyclohexyl}-1-methyl-1H-indazole-3-carboxamide], the IC50 in assay [1] is no less than 50000 nM; in assay [2], 14000 nM; against TNKS2, greater than 10000 nM.

As to `Cn1nc2ccccc2c1C(=O)N[C@H]1CC[C@H](C(=O)Nc2ccc(F)cc2Cl)CC1` [Example 250, N-{trans-4-[(2-chloro-4-fluorophenyl)carbamoyl]cyclohexyl}-2-methyl-2H-indazole-3-carboxamide], the IC50 in assay [1] is no less than 50000 nM; in assay [2] it was no less than 50000 nM; on TNKS2, greater than 10000 nM.

Regarding `O=C(N[C@H]1CC[C@@]2(CCN(c3ccc(F)cc3Cl)C2=O)CC1)c1n[nH]c2ccccc12` [Example 251, N-[trans-2-(2-chloro-4-fluorophenyl)-1-oxo-2-azaspiro[4.5]dec-8-yl]-1H-indazole-3-carboxamide], the IC50 is no less than 50000 nM in assay [1], 2500 nM in assay [2] and greater than 10000 nM on TNKS2.
